In patent publication US8921546B2, “Imidazolothiazole compounds for the treatment of disease” (Ambit Biosciences Corporation, priority 2006, dated 2014):
Where a name gives a salt, the structure may show the parent alone. Read-outs that look alike come from different tables or passages of the source.

How the values were obtained:
KIT = molecular target: T1, KIT (Homo sapiens, UniProt P10721); experiment: Binding constant (Kd) measurement, phage-displayed kinase competition binding assay, KIT
T1 construct: made in house
T1 sequence (P10721 26-976): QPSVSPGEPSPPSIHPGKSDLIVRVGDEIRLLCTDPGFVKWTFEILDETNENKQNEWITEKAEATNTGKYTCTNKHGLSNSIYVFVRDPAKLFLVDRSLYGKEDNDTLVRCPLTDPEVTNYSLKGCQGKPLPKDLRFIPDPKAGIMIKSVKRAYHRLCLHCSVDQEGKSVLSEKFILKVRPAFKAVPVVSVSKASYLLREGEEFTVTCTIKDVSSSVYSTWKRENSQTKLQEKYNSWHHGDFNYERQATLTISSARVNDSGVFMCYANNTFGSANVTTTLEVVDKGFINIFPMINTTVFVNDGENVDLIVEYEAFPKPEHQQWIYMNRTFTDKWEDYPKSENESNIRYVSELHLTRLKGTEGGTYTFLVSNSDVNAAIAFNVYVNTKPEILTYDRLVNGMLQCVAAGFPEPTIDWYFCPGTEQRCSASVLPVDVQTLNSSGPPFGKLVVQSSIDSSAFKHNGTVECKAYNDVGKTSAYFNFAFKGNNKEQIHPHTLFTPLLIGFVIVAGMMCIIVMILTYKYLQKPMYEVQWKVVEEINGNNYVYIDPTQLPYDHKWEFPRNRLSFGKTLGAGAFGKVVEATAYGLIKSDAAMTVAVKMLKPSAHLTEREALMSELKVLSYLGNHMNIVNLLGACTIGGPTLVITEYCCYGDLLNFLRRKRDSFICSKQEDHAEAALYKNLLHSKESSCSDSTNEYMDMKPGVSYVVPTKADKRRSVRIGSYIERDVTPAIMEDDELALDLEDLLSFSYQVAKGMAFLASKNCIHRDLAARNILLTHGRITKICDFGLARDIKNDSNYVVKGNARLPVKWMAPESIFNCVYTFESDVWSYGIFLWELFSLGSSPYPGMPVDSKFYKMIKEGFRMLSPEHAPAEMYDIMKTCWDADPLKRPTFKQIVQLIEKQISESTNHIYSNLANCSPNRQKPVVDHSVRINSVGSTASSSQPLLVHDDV
Method: (§1) Binding Constant (Kd) Measurements for Small-Molecule-Kinase Interactions
(§2) By testing across a large class of protein kinases, specificity of the kinase inhibitors provided herein is also determined. The components of the assays include various human kinases expressed as fusions to T7 bacteriophage particles and immobilized ligands that bind to the ATP site of the kinases. […] If the test compound binds the kinase, it competes with the immobilized ligand and prevents binding to the solid support. […] The results are read out by quantitating the amount of fusion protein bound to the solid support, which is accomplished by either traditional phage plaque assays or by quantitative PCR (qPCR) using the phage genome as a template.

FLT3 = molecular target: T2, FLT3 (Homo sapiens, UniProt P36888); experiment: Binding constant (Kd) measurement, phage-displayed kinase competition binding assay, FLT3
T2 construct: made in house
T2 sequence (P36888 27-993): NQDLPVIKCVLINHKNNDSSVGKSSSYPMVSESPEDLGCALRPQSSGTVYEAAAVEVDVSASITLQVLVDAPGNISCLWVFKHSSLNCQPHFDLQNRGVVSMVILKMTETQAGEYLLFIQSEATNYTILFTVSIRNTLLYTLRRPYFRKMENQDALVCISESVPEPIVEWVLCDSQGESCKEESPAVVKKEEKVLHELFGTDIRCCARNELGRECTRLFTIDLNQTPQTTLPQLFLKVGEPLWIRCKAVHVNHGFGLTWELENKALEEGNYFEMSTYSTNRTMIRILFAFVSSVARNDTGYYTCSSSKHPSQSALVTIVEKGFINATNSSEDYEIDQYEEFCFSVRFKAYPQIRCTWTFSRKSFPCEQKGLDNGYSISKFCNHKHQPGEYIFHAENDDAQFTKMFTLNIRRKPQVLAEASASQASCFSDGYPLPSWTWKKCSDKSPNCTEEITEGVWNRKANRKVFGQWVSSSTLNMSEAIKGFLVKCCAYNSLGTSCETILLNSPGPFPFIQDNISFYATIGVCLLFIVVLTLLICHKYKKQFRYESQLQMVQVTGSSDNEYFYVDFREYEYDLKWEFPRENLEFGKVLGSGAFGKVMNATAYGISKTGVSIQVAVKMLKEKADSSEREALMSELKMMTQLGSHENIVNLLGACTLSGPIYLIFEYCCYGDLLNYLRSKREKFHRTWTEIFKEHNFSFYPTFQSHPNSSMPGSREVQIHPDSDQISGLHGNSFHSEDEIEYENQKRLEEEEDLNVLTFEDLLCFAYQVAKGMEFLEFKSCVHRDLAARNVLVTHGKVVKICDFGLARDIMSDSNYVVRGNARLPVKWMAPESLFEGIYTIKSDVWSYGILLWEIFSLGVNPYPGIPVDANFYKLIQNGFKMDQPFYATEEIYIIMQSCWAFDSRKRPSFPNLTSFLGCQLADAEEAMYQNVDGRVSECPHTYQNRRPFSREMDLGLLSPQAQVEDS
Method: as §1, §2

MV4-11 cells = experiment: Cellular proliferation assay (MTS), MV4-11; type: cell-based; details: Homo sapiens; MV4-11 cells, 72 hour incubation, MTS; read-out: Cellular Assay MV-proliferation IC50
Text: Cellular Proliferation Assay
Cancer cell viability and proliferation can be evaluated using a tetrazolium salt reduction cell-based assay. In viable cells, this colorimetric assay can measure mitochondrial reduction of a tetrazolium component (MTS) into an […] formazan product.
This cell line was used to determine the ability of the compounds provided herein to inhibit Flt3 in intact cells. The RS4-11 cell line, which expresses the wild-type (WT) receptor, is also used as a control to verify the test compound's ability to inhibit the FLT3 receptor containing the ITD mutation.
MV4-11 cells were plated at 10,000 cells per well in DMEM medium with 0.5% serum. RS4-11 cells were plated at 20,000 cells per well in RPMI with 0.5% serum. […] An aliquot from each well of the compound plate was transferred to the plated cells and then incubated @ 37° C. in 5% CO2 (for 3 days for the MV4-11 cells, 2 days for the RS4-11 cells).
MTS tetrazolium compound (Owen's reagent) was thawed in a H2O bath. 20 μl of MTS tetrazolium was added to each well of optical plate and the cells were incubated @ 37° C. in 5% CO2 for 2 hours.

CSF1R = molecular target: T3, CSF1R (Homo sapiens, UniProt P07333); experiment: Binding constant (Kd) measurement, phage-displayed kinase competition binding assay, CSF1R
T3 construct: made in house
T3 sequence (P07333 20-972): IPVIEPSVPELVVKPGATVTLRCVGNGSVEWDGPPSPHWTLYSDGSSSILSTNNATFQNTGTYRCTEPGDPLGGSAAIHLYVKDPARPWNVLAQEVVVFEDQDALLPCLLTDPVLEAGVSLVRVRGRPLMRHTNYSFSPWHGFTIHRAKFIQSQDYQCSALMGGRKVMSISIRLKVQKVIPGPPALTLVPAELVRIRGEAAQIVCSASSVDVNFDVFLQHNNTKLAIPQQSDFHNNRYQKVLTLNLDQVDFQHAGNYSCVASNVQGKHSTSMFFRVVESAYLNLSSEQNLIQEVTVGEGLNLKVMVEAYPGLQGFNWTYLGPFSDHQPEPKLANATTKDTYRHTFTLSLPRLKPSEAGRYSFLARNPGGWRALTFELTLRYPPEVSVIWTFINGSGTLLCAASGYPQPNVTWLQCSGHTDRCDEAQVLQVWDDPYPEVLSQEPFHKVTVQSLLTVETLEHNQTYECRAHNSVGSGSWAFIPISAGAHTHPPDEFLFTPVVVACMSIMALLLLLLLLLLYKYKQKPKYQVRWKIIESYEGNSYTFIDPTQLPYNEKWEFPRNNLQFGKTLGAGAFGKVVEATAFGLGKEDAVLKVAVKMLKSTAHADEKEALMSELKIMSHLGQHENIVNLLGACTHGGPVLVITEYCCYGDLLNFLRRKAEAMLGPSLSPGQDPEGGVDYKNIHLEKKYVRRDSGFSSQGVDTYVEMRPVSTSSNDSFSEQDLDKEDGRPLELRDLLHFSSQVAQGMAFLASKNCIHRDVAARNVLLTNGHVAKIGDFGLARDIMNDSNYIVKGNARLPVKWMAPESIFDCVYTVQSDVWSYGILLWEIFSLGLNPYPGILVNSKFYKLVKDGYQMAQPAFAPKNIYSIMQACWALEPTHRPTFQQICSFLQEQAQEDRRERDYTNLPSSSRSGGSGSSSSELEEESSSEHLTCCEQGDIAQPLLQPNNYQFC
Method: as §1, §2

[1] = read-out: Binding Assay FLT3 Kd

SMILES	Kd (KIT)	Kd (FLT3)	IC50 (MV4-11 cells)	Kd (CSF1R)	Kd (FLT3; [1])
CC(C)(C)c1cc(NC(=O)Nc2ccc(-c3cn4c(n3)sc3cc(CCCN5CCCCC5)ccc34)cc2)no1 [Compound D4, N-(5-tert-Butyl-isoxazol-3-yl)-N′-{4-[7-(3-piperidin-1-yl-propyl)imidazo[2,1-b][1,3]benzothiazol-2-yl]phenyl}urea hydrochloride]	0.01 to 0.1 µM	< 0.01 µM	< 0.01 µM	0.01 to 0.1 µM	–
CCN(CC)CCNC(=O)CCc1ccc2c(c1)sc1nc(-c3ccc(NC(=O)Nc4cc(C(C)(C)C)on4)cc3)cn12 [Compound C12, 3-(2-{4-[3-(5-tert-butyl-isoxazol-3-yl)-ureido]-phenyl}-benzo[d]imidazo[2,1-b]thiazol-7-yl)-N-(2-diethylamino-ethyl)-propionamide hydrochloride]	< 0.01 µM	< 0.01 µM	< 0.01 µM	0.01 to 0.1 µM	–
Cc1nc(C(F)(F)F)c(C(=O)Nc2ccc(-c3cn4c(n3)sc3cc(OCCN5CCOCC5)ccc34)cc2)s1 [Compound E3, 2-methyl-4-trifluoromethyl-thiazole-5-carboxylic acid {4-[7-(2-morpholin-4-yl-ethoxy)-benzo[d]imidazo[2,1-b]thiazol-2-yl]-phenyl}-amide]	> 1 µM	–	> 0.1 µM	> 1 µM	> 1 µM
CCOC(=O)c1ccc2c(c1)sc1nc(-c3cccc(NC(=O)Nc4cc(C(C)(C)C)on4)c3)cn12 [Compound B14, 2-{3-[3-(5-tert-Butyl-isoxazol-3-yl)-ureido]-phenyl}-imidazo[2,1-b][1,3]benzothiazole-7-carboxylic acid ethyl ester]	> 1 µM	–	> 0.1 µM	> 1 µM	> 1 µM
CC(C)(C)c1cc(NC(=O)Nc2cccc(-c3cn4c(n3)sc3cc(OCCN5CCOCC5)ccc34)c2)no1 [Compound B13, N-(5-tert-butyl-isoxazol-3-yl)-N′-{3-[7-(2-morpholin-4-yl-ethoxy)imidazo[2,1-b][1,3]benzothiazol-2-yl]phenyl}urea]	> 1 µM	–	> 0.1 µM	> 1 µM	0.1 to 1 µM
CC(C)(C)c1cc(NC(=O)Nc2ccc(-c3cn4c(n3)sc3cc(CN5CCCCC5)ccc34)cc2)no1 [Compound D10, 1-(5-tert-Butyl-isoxazol-3-yl)-3-[4-(7-piperidin-1-ylmethyl-imidazo[2,1-b][1,3]benzothiazol-2-yl)-phenyl]urea hydrochloride]	< 0.01 µM	< 0.01 µM	< 0.01 µM	0.01 to 0.1 µM	–
CC(C)(C)c1cc(NC(=O)Nc2ccc(-c3cn4c(n3)sc3cc(CN5CCOCC5)ccc34)cc2)no1 [Compound D8, 1-(5-tert-Butyl-isoxazol-3-yl)-3-[4-(7-morpholin-4-ylmethyl-imidazo[2,1-b][1,3]benzothiazol-2-yl)-phenyl]-urea hydrochloride]	< 0.01 µM	< 0.01 µM	< 0.01 µM	0.01 to 0.1 µM	–
CC(C)(C)c1cc(NC(=O)Nc2ccc(-c3cn4c(n3)sc3cc(CCCN5CCOCC5)ccc34)cc2)no1 [Compound D3, 1-(5-tert-Butyl-isoxazol-3-yl)-3-{4-[7-(3-morpholin-4-yl-propyl)-benzo[d]imidazo[2,1-b]thiazol-2-yl]-phenyl}-urea]	< 0.01 µM	–	< 0.01 µM	0.01 to 0.1 µM	< 0.01 µM
CC(C)(C)c1cc(NC(=O)Nc2ccc(-c3cn4c(n3)sc3cc(CC(=O)N5CCOCC5)ccc34)cc2)no1 [Compound C18, 1-(5-tert-butyl-isoxazol-3-yl)-3-{4-[7-(2-morpholin-4-yl-2-oxo-ethyl)-imidazo[2,1-b][1,3]benzothiazol-2yl]-phenyl}-urea]	< 0.01 µM	< 0.01 µM	< 0.01 µM	0.01 to 0.1 µM	–
CCOC(=O)CCc1ccc2c(c1)sc1nc(-c3ccc(NC(=O)Nc4cc(C(C)(C)C)on4)cc3)cn12 [Compound C3, Ethyl 3-{2-[4-({[(5-tert-Butylisoxazol-3-yl)amino]carbonyl}amino)phenyl]imidazo[2,1-b][1,3]benzothiazol-7-yl}propanoate]	0.01 to 0.1 µM	< 0.01 µM	< 0.01 µM	> 1 µM	–
Cc1nc2cc(NC(=O)Nc3ccc(-c4cn5c(n4)sc4cc(OCCN6CCOCC6)ccc45)cc3)ccc2s1 [Compound F8, 1-(2-methyl-benzothiazol-5-yl)-3-{4-[7-(2-morpholin-4-yl-ethoxy)-benzo[d]imidazo[2,1-b]thiazol-2-yl]-phenyl}-urea]	0.01 to 0.1 µM	–	< 0.01 µM	0.1 to 1 µM	< 0.01 µM
CC(C)(C)c1cc(NC(=O)Nc2ccc(-c3cn4c(n3)sc3cc(OCCCN5CCOCC5)ccc34)cc2)no1 [Compound B7, 1-(5-tert-butyl-isoxazol-3-yl)-3-{4-[7-(3-morpholin-4-yl-propoxy)-benzo[d]imidazo[2,1-b]thiazol-2-yl]-phenyl}-urea hydrochloride]	0.01 to 0.1 µM	–	< 0.01 µM	0.01 to 0.1 µM	< 0.01 µM
CC(C)(C)c1ccc(NC(=O)Nc2ccc(-c3cn4c(n3)sc3cc(OCCN5CCOCC5)ccc34)cc2)cc1 [Compound F2, 1-(4-tert-Butyl-phenyl)-3-{4-[7-(2-morpholin-4-yl-ethoxy)-benzo[d]imidazo[2,1-b]thiazol-2-yl]-phenyl}-urea]	< 0.01 µM	–	< 0.01 µM	0.01 to 0.1 µM	< 0.01 µM
CCN(CC)C(=O)CCc1ccc2c(c1)sc1nc(-c3ccc(NC(=O)Nc4cc(C(C)(C)C)on4)cc3)cn12 [Compound C8, 3-(2-{4-[3-(5-tert-butyl-isoxazol-3-yl)-ureido]-phenyl}-benzo[d]imidazo[2,1-b]thiazol-7-yl)-N,N-diethyl-propionamide]	< 0.01 µM	< 0.01 µM	< 0.01 µM	0.01 to 0.1 µM	–
CC(C)(C)c1cc(NC(=O)Nc2ccc(-c3cn4c(n3)sc3cc(CCC(=O)NCCN5CCCCC5)ccc34)cc2)no1 [Compound C10, 3-(2-{4-[3-(5-tert-butyl-isoxazol-3-yl)-ureido]-phenyl}-benzo[d]imidazo[2,1-b]thiazol-7-yl)-N-(2-piperidin-1-yl-ethyl)-propionamide hydrochloride]	< 0.01 µM	–	< 0.01 µM	0.01 to 0.1 µM	< 0.01 µM
CCOC(=O)c1ccc2c(c1)sc1nc(-c3ccc(NC(=O)Nc4cc(C(C)(C)C)on4)cc3)cn12 [Compound C26, 2-{4-[3-(5-tert-Butyl-isoxazol-3-yl)-ureido]-phenyl}-imidazo[2,1-b][1,3]benzothiazole-7-carboxylic acid ethyl ester]	0.01 to 0.1 µM	< 0.01 µM	< 0.01 µM	0.1 to 1 µM	–
CC(C)(C)c1cc(NC(=O)Nc2ccc(-c3cn4c(n3)sc3cc(C(=O)NCCN5CCCC5)ccc34)cc2)no1 [Compound C21, 2-{4-[3-(5-tert-butyl-isoxazol-3-yl)-ureido]-phenyl}-imidazo[2,1-b][1,3]benzothiazole-7-carboxylic Acid (2-Pyrrolidin-1-yl-ethyl)-amide hydrochloride]	< 0.01 µM	< 0.01 µM	< 0.01 µM	0.01 to 0.1 µM	–
CN(C(=O)Nc1cc(C(C)(C)C)on1)c1ccc(-c2cn3c(n2)sc2cc(CCCN4CCOCC4)ccc23)cc1 [Compound D2, 3-(5-tert-Butyl-isoxazol-3-yl)-1-methyl-1 {4-[7-(3-morpholin-4-yl-propyl)-benzo[d]imidazo[2,1-b]thiazol-2-yl]-phenyl}-urea]	< 0.01 µM	–	0.01 to 0.1 µM	0.01 to 0.1 µM	0.01 to 0.1 µM
